Values after ≈ are worked out from the molar mass of the structure shown. Like-named read-outs stand apart in the source and are kept apart here.
What was measured:
Botrtyis cinerea (Bc) = test: Growth inhibition assay of fungal pathogens, Bc; format: cell-based; settings: 48 h, growth inhibition at 48 hours vs 2% DMSO control
Protocol: (§1) Compounds of the present invention were evaluated in a growth inhibition assay to determine the ability to control the growth of fungal pathogens, such as Botrtyis cinerea (Bc), Collectotrichum graminicola (Cg), Diplodia maydis (Dm), Fusarium moniliforme (Fm), Fusarium virguliforme (Fv), Phytophthora capsici (Pc), Rhizoctonia solani (Rs), and Septoria tritici (St).
(§2) Compounds to be tested were dissolved in DMSO at 2.5 mg/ml to produce compound stock solutions (“stocks”). Stocks were diluted with DMSO by a five-fold dilution in a 96-well stock plate, and two sets of final concentrations of 50, 10, and 2 ppm or 2, 0.4, and 0.08 ppm were obtained in vitro. A set of positive controls was also prepared, with various concentrations of Soraphen (2, 0.4, and 0.08 ppm), Metalaxyl (1.1, 0.22, and 0.04 ppm), and Metconazole (2, 0.4, and 0.08 ppm or 0.2, 0.04, and 0.008 ppm) after the five-fold dilutions. Negative controls on each plate included 2% DMSO, water, and a blank (media+2% DMSO).
(§3) Fungal spores were isolated from previously sub-cultured plates of Botrtyis cinerea (Bc), Collectotrichum graminicola (Cg), Diplodia maydis (Dm), Fusarium moniliforme (Fm), Fusarium virguliforme (Fv), Phytophthora capsici (Pc), and Septoria tritici (St). The isolated spores were diluted to individual concentrations with a 17% V8 liquid media. For Rhizoctonia solani (Rs) and Pythium irregulare, 1.5 mm mycelial plugs were used in place of spores and/4 Potato Dextrose Broth (PDB) was used for dilution. The spore concentrations and plug sizes were based on growth curves generated at 48 hours for each pathogen.
(§4) In a second 96-well plate, the spores or mycelial plugs, media, diluted compound solutions, and controls were combined. Once the compound was added, a true final concentration of compound in each well was measured by an OD600 reading, which adjusted for any compound precipitation that might have occurred in the well. Plate readings were repeated at both 24 and 48 hours. The blank negative control was used as a background subtraction. Additional visual ratings were performed at both 24 and 48 hours for checking on precipitation and confirming efficacy. Visual and OD600 ratings of the compounds at 48 hours were compared to the 2% DMSO negative control, and the percent of pathogen growth inhibition was determined based on those values.

[1] = tested on: Phytophthora capsici (Pc); test: Growth inhibition assay of fungal pathogens, Pc; format: cell-based; settings: 48 h
Protocol: as §1, §2, §3, §4

C. parapsilosis = test: Antifungal Activity Assay (broth microtiter MIC), C. parapsilosis; format: cell-based, Candida parapsilosis; settings: Lodderomyces parapsilosis, ATCC22019, 48 h
Method in brief: (§5)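 CLSI M27-A3 broth microdilution in RPMI 1640+MOPS, final inoculum 2.5×10^3 CFU/mL from overnight Sabouraud cultures grown at 35 °C. MIC read visually at 48 h against growth control.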

C. albicans = test: Antifungal Activity Assay (broth microtiter MIC), C. albicans; format: cell-based, Candida albicans; settings: Candida albicans, ATCC90028, 48 h
Method in brief: as §5

Rhizoctonia solani (Rs) = test: Growth inhibition assay of fungal pathogens, Rs; format: cell-based; settings: 48 h
Diplodia maydis (Dm) = test: Growth inhibition assay of fungal pathogens, Dm; format: cell-based; settings: Stenocarpella maydis, 48 h, growth inhibition at 48 hours vs 2% DMSO control
Protocol: as §1, §2, §3, §4

C. krusei = test: Antifungal Activity Assay (broth microtiter MIC), C. krusei; format: cell-based, Candida krusei; settings: Pichia kudriavzevii, ATCC6258, 48 h
Method in brief: as §5

human (hACC2) = human (hACC2) (Homo sapiens, UniProt O00763); test: In vitro ACC inhibition assay (ADP-Glo), hACC2; format: biochemical; settings: Table 2b, additional results, 5 nM ACC2, 20 μM ATP, 20 μM acetyl-CoA
Protocol: The detailed procedure is as follows. […] 10 μL ADP glo reagent was added. […] 20 μL kinase detection reagent was added.

fungal (fACC2) = fungal (fACC2) (UniProt Q00955); settings: read-out: fACC2 (in vitro ACC2 Inhibition Assay, IC50); Table 2b, additional results; ADP-Glo, 5 nM ACC2, 20 μM ATP, 20 μM acetyl-CoA
[2] = tested on: Fusarium virguliforme (Fv); test: Growth inhibition assay of fungal pathogens, Fv; format: cell-based; settings: 48 h
Protocol: as §1, §2, §3, §4

Septoria tritici (St) = test: Growth inhibition assay of fungal pathogens, St; format: cell-based; settings: Zymoseptoria tritici, 48 h, growth inhibition at 48 hours vs 2% DMSO control
Protocol: as §1, §2, §3, §4

[3] = tested on: Fusarium moniliforme (Fm); test: Growth inhibition assay of fungal pathogens, Fm; format: cell-based; settings: Fusarium verticillioides, 48 h, read-out: Concentration at 90% Inhibition Fm
Protocol: as §1, §2, §3, §4

[4] = tested on: Collectotrichum graminicola (Cg); test: Growth inhibition assay of fungal pathogens, Cg; format: cell-based; settings: 48 h, growth inhibition at 48 hours vs 2% DMSO control
Protocol: as §1, §2, §3, §4

[5] = Botrtyis cinerea, read-out: Concentration at 90% Inhibition Bc
[6] = growth inhibition at 48 hours vs 2% DMSO control, read-out: Concentration at 90% Inhibition Pc
[7] = Table 3b (additional results), ATCC 22019, 3 replicates, MIC recorded at 48 h, read-out: MIC, C. parapsilosis ATCC 22019
[8] = Table 3b (additional results), ATCC 90028, 3 replicates, MIC recorded at 48 h, read-out: MIC, C. albicans ATCC 90028
[9] = mycelial plugs, growth inhibition at 48 hours vs 2% DMSO control, read-out: Concentration at 90% Inhibition Rs
[10] = Diplodia maydis, read-out: Concentration at 90% Inhibition Dm
[11] = Table 3b (additional results), ATCC 6258, 3 replicates, MIC recorded at 48 h, read-out: MIC, C. krusei ATCC 6258
[12] = growth inhibition at 48 hours vs 2% DMSO control, read-out: Concentration at 90% Inhibition Fv
[13] = Septoria tritici, read-out: Concentration at 90% Inhibition St
[14] = Fusarium moniliforme, growth inhibition at 48 hours vs 2% DMSO control
[15] = Collectotrichum graminicola, read-out: Concentration at 90% Inhibition Cg

Chain of fungal (fACC2) (Q00955 whole entry): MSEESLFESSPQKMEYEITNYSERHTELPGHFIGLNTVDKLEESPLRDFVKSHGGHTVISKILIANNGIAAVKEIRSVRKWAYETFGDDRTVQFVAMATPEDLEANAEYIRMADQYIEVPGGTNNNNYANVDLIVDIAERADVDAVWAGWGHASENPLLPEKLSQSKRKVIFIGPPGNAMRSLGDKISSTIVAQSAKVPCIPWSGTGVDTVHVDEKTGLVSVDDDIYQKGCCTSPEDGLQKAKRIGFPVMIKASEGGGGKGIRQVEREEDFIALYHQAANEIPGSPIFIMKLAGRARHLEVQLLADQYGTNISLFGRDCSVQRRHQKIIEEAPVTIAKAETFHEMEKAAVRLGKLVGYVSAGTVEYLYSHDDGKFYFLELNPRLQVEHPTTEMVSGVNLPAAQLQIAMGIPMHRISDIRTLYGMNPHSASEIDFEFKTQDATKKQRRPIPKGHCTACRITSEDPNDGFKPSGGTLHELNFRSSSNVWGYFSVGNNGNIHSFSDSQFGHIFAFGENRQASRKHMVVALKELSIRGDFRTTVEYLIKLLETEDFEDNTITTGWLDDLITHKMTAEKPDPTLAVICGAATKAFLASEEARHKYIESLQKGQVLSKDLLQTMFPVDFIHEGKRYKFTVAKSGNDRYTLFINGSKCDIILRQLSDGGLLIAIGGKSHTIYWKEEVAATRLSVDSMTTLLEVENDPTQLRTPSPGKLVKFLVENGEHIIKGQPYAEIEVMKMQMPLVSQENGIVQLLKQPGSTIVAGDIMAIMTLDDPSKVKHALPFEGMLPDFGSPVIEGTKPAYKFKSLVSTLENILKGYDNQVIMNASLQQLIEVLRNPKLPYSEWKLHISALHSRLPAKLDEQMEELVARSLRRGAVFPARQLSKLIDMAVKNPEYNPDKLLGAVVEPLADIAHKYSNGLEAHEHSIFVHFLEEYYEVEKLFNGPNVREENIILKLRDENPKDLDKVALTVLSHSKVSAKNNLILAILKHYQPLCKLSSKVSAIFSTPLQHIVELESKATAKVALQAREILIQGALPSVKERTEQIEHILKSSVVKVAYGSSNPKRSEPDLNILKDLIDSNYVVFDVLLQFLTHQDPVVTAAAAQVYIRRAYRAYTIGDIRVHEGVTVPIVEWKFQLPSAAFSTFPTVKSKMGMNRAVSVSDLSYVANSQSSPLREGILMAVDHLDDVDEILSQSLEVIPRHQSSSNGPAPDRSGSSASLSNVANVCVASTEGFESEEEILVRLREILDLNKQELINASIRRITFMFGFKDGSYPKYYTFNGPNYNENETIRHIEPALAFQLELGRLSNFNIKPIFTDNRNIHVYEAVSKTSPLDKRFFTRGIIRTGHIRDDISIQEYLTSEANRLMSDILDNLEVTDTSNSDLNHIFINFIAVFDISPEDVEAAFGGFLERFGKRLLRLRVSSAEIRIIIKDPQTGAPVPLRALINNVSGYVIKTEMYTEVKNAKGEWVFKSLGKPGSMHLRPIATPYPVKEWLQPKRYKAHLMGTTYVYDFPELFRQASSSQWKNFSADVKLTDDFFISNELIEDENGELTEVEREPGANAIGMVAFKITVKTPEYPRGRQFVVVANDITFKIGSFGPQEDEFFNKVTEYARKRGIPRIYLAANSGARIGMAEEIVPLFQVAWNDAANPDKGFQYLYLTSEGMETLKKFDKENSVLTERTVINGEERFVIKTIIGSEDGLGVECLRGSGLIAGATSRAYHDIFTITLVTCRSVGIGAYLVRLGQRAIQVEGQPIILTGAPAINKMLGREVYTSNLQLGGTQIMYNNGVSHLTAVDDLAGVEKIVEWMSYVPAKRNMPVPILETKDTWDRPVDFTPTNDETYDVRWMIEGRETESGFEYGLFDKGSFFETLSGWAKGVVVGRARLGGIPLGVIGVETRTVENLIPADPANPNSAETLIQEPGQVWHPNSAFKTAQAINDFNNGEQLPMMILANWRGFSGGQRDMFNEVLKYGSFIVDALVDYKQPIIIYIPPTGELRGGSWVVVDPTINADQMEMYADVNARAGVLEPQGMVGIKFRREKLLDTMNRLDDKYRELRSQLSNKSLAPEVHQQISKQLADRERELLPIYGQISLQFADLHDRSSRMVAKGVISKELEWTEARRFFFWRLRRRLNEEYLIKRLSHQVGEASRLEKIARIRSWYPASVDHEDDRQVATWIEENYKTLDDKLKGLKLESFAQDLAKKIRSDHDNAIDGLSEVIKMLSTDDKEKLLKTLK
Chain of human (hACC2) (O00763 whole entry): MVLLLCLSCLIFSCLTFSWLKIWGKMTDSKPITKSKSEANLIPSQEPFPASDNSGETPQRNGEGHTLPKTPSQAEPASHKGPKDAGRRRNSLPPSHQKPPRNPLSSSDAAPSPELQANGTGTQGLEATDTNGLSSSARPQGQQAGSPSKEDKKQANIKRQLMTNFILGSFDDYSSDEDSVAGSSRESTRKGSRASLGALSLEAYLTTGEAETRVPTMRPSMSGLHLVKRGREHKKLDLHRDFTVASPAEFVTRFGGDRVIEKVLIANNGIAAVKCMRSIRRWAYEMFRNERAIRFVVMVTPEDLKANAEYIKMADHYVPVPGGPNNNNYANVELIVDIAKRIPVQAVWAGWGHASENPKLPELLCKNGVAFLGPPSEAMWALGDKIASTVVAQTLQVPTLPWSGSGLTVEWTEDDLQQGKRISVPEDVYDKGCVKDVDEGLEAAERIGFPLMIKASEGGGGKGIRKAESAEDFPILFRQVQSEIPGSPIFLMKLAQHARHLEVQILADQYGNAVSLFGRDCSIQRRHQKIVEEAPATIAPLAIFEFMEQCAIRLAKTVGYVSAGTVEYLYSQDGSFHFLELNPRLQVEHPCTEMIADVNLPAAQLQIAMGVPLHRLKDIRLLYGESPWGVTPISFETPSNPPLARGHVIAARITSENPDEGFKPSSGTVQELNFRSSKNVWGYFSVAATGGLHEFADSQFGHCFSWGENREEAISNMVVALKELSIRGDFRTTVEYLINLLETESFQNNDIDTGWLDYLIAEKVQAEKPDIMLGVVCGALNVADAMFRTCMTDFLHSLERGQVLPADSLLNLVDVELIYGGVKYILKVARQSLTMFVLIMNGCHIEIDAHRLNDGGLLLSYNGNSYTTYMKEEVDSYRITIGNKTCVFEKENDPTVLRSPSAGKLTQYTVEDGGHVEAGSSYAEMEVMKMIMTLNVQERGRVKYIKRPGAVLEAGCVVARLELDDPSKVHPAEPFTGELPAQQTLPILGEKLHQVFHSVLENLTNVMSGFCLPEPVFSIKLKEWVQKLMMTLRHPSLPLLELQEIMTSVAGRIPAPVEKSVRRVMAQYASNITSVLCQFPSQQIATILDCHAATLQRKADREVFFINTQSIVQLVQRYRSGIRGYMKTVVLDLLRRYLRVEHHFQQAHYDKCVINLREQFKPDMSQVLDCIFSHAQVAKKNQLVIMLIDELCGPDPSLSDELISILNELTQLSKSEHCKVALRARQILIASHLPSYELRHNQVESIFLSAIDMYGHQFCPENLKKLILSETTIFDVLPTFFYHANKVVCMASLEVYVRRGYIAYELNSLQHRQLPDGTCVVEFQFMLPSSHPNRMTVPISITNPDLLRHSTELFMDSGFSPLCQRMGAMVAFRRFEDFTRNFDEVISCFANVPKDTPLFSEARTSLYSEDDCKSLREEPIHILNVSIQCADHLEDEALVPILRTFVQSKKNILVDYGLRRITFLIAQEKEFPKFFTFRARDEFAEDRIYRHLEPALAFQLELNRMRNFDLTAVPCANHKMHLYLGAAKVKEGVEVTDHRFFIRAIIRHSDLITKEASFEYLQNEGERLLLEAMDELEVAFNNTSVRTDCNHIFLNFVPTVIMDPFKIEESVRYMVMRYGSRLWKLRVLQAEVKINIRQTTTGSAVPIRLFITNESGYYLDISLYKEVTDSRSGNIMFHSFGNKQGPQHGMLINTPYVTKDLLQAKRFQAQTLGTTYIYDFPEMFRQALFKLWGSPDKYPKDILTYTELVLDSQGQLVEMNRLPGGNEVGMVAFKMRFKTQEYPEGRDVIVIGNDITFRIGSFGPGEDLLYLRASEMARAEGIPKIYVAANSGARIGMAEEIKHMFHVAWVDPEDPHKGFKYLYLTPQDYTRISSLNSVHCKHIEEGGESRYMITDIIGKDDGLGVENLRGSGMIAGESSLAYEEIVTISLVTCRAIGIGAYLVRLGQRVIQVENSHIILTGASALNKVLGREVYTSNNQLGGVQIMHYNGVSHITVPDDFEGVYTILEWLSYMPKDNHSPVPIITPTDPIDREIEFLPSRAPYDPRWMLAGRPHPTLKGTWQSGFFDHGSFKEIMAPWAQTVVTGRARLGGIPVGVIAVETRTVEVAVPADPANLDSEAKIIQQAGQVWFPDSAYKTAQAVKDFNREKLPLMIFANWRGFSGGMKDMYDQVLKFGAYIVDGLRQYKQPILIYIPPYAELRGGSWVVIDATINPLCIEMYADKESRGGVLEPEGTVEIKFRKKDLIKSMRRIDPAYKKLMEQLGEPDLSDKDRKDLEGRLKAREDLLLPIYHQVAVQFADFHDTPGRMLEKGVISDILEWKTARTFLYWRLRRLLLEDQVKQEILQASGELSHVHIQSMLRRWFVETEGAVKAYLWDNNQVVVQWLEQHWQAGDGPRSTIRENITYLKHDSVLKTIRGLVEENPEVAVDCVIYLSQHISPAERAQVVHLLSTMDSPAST

| Structure (SMILES) | IC50 (human (hACC2)) | IC50 (fungal (fACC2)) | IC90 (Botrtyis cinerea (Bc); [5]) | IC90 [1, 6] | MIC (C. parapsilosis; [7]) | MIC (C. albicans; [8]) | IC90 (Rhizoctonia solani (Rs); [9]) | IC90 (Diplodia maydis (Dm); [10]) | MIC (C. krusei; [11]) | IC90 [2, 12] | IC90 (Septoria tritici (St); [13]) | IC90 [3, 14] | IC90 [4, 15] | other results |
| --- | --- | --- | --- | --- | --- | --- | --- | --- | --- | --- | --- | --- | --- | --- |
| Cc1c(-n2nccn2)sc2c1c(=O)n(C(C)(C)C(=O)NC1CCC1)c(=O)n2C[C@H](OC(C)C)c1cc(F)ccc1OCC#N [Compound I-221] | 5 to 10 nM | 0.3 to 1 nM |  |  |  |  |  |  |  |  |  |  |  | IC90 (Botrtyis cinerea (Bc); read-out: Concentration at 90% Inhibition Bc, Botrtyis cinerea): 0.4 µg/mL (≈ 0.641 µM); IC90 ([1]; read-out: Concentration at 90% Inhibition Pc, Phytophthora capsici, growth inhibition at 48 hours vs 2% DMSO control): > 50 µg/mL; MIC (C. parapsilosis; read-out: MIC, C. parapsilosis ATCC 22019, Table 3b (additional results), 3 replicates, MIC recorded at 48 h): 0.25 to 1 µg/mL (≈ 0.401 to 1.6 µM); MIC (C. albicans; read-out: MIC, C. albicans ATCC 90028, Table 3b (additional results), 3 replicates, MIC recorded at 48 h): 1.01 to 2 µg/mL (≈ 1.62 to 3.21 µM); IC90 (Rhizoctonia solani (Rs); read-out: Concentration at 90% Inhibition Rs, Rhizoctonia solani, mycelial plugs, growth inhibition at 48 hours vs 2% DMSO control): 0.4 µg/mL (≈ 0.641 µM); IC90 (Diplodia maydis (Dm); read-out: Concentration at 90% Inhibition Dm, Diplodia maydis): 2 µg/mL (≈ 3.21 µM); MIC (C. krusei; read-out: MIC, C. krusei ATCC 6258, Table 3b (additional results), 3 replicates, MIC recorded at 48 h): 0.25 to 1 µg/mL (≈ 0.401 to 1.6 µM); IC90 ([2]; read-out: Concentration at 90% Inhibition Fv, Fusarium virguliforme, growth inhibition at 48 hours vs 2% DMSO control): 0.4 µg/mL (≈ 0.641 µM); IC90 (Septoria tritici (St); read-out: Concentration at 90% Inhibition St, Septoria tritici): > 50 µg/mL; IC90 [3]: 0.08 µg/mL (≈ 0.128 µM); IC90 ([4]; read-out: Concentration at 90% Inhibition Cg, Collectotrichum graminicola): 2 µg/mL (≈ 3.21 µM) |
| CCNC(=O)C(C)(C)n1c(=O)c2c(C)c(-n3nccn3)sc2n(C[C@@H](O)c2cc(F)ccc2OC)c1=O [Compound I-254] | > 40 nM | 1 to 5 nM | > 50 µg/mL | > 50 µg/mL | 2.01 to 4 µg/mL (≈ 3.79 to 7.54 µM) | 2.01 to 4 µg/mL (≈ 3.79 to 7.54 µM) | 2 µg/mL (≈ 3.77 µM) | > 50 µg/mL | 2.01 to 4 µg/mL (≈ 3.79 to 7.54 µM) | > 50 µg/mL | > 50 µg/mL | 10 µg/mL (≈ 18.8 µM) | > 50 µg/mL |  |
| Cc1c(-n2nccn2)sc2c1c(=O)n(C(C)(C)C(=O)NC(C)C)c(=O)n2C[C@H](OCCC#N)c1ccccc1O [Compound I-271] | 5 to 10 nM | 0.3 to 1 nM | 10 µg/mL (≈ 17.7 µM) | > 50 µg/mL | 2.01 to 4 µg/mL (≈ 3.55 to 7.07 µM) | 2.01 to 4 µg/mL (≈ 3.55 to 7.07 µM) | 10 µg/mL (≈ 17.7 µM) | > 50 µg/mL | 2.01 to 4 µg/mL (≈ 3.55 to 7.07 µM) | 2 µg/mL (≈ 3.54 µM) | > 50 µg/mL | 2 µg/mL (≈ 3.54 µM) | > 50 µg/mL |  |
| CCNC(=O)C(C)(C)n1c(=O)c2c(C)c(-n3nccn3)sc2n(C[C@H](O)c2cc(F)ccc2OC)c1=O [Compound I-255] | 10 to 40 nM | 0.3 to 1 nM | 2 µg/mL (≈ 3.77 µM) | > 50 µg/mL | 2.01 to 4 µg/mL (≈ 3.79 to 7.54 µM) | 2.01 to 4 µg/mL (≈ 3.79 to 7.54 µM) | 0.4 µg/mL (≈ 0.754 µM) | 2 µg/mL (≈ 3.77 µM) | 2.01 to 4 µg/mL (≈ 3.79 to 7.54 µM) | 0.4 µg/mL (≈ 0.754 µM) | > 50 µg/mL | 0.08 µg/mL (≈ 0.151 µM) | 2 µg/mL (≈ 3.77 µM) |  |
